Laboratory results from PubChem BioAssay (NCI).
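Following 48 hours of exposure in 96-well plates, responses at five concentrations were used to interpolate endpoints linearly. Definition used: TGI = concentration required for complete inhibition of growth.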 Where a SMILES comes first, the peptide text is derived from it. [ ]: non-standard residue; d: D form. The star is where a group is joined. ξ: configuration not given here. ξHyp = O=C(O)C1CC(O)CN1; Cbz = O=C(OCc1ccccc1)*

Assays:
Experiment in all cases: NCI tumour cell line growth inhibition, 48 h
[1] = system: A498 renal
[2] = system: A549 NSCLC
[3] = system: ACHN renal
[4] = system: BT-549 breast
[5] = system: CCRF-CEM leukemia
[6] = system: COLO 205 colon
[7] = system: DU-145 prostate
[8] = system: EKVX NSCLC
[9] = system: HCC-2998 colon
[10] = system: HCT-116 colon
[11] = system: HCT-15 colon
[12] = system: HL-60(TB) leukemia
[13] = system: HOP-62 NSCLC
[14] = system: HS 578T breast
[15] = system: HT29 colon
[16] = system: IGROV1 ovarian
[17] = system: K-562 leukemia
[18] = system: KM12 colon
[19] = system: LOX IMVI melanoma
[20] = system: M14 melanoma
[21] = system: MALME-3M melanoma
[22] = system: MCF7 breast
[23] = system: MDA-MB-231 breast
[24] = system: MDA-MB-435
[25] = system: MDA-N
[26] = system: MOLT-4 leukemia
[27] = system: NCI-H226 lung
[28] = system: NCI-H23 lung
[29] = system: NCI-H460 lung
[30] = system: NCI-H522 lung
[31] = system: NCI/ADR-RES ovarian
[32] = system: OVCAR-3 ovarian
[33] = system: OVCAR-4 ovarian
[34] = system: OVCAR-5 ovarian
[35] = system: OVCAR-8 ovarian
[36] = system: PC-3 prostate
[37] = system: RPMI-8226 leukemia
[38] = system: RXF 393 renal
[39] = system: SF-268 CNS
[40] = system: SF-295 CNS
[41] = system: SF-539 CNS
[42] = system: SK-MEL-2 melanoma
[43] = system: SK-MEL-28 melanoma
[44] = system: SK-MEL-5 melanoma
[45] = system: SK-OV-3 ovarian
[46] = system: SN12C renal
[47] = system: SNB-19 CNS
[48] = system: SNB-75 CNS
[49] = system: SR leukemia
[50] = system: SW-620 colon
[51] = system: T-47D breast
[52] = system: TK-10 renal
[53] = system: U251 CNS
[54] = system: UACC-257 melanoma
[55] = system: UACC-62 melanoma
[56] = system: UO-31 renal
[57] = system: CAKI-1 renal
[58] = system: HOP-92 NSCLC
[59] = system: 786-0 renal

In the case of `O=C(O)C1(Cc2ccccc2)Cc2ccccc2C1`, the TGI [1] is reported as > 100 µM, the TGI [2] is reported as > 100 µM and the TGI [3] is reported as > 100 µM. The TGI [4] was > 100 µM, the TGI [5] was > 100 µM and the TGI [6] was > 100 µM. For the same compound, the TGI [7] was > 100 µM, the TGI [8] was > 100 µM and the TGI [9] was > 100 µM. The TGI [10] was > 100 µM, the TGI [11] was > 100 µM and the TGI [12] was > 100 µM. For the same compound, the TGI [13] was > 100 µM, the TGI [14] was > 100 µM and the TGI [15] was > 100 µM. The TGI [16] was > 100 µM, the TGI [17] was > 100 µM and the TGI [18] was > 100 µM. For the same compound, the TGI [19] was > 100 µM, the TGI [20] was > 100 µM and the TGI [21] was > 100 µM. The TGI [22] was > 100 µM, the TGI [23] was > 100 µM and the TGI [24] was > 100 µM. For the same compound, the TGI [25] was > 100 µM, the TGI [26] was > 100 µM and the TGI [27] was > 100 µM. The TGI [28] was > 100 µM, the TGI [29] was > 100 µM and the TGI [30] was > 100 µM. For the same compound, the TGI [31] was > 100 µM, the TGI [32] was > 100 µM and the TGI [33] was > 100 µM. For the same compound, the TGI [34] was > 100 µM, the TGI [35] was > 100 µM and the TGI [36] was > 100 µM. The TGI [37] was > 100 µM, the TGI [38] was > 100 µM and the TGI [39] was > 100 µM. The TGI [40] was > 100 µM, the TGI [41] was > 100 µM and the TGI [42] was > 100 µM. For the same compound, the TGI [43] was > 100 µM, the TGI [44] was > 100 µM and the TGI [45] was > 100 µM. For the same compound, the TGI [46] was > 100 µM, the TGI [47] was > 100 µM and the TGI [48] was > 100 µM. For the same compound, the TGI [49] was > 100 µM, the TGI [50] was > 100 µM and the TGI [51] was > 100 µM. The TGI [52] was > 100 µM, the TGI [53] was > 100 µM and the TGI [54] was > 100 µM. The TGI [55] was > 100 µM and the TGI [56] was > 100 µM.

In the case of `O=C1CC2(CCC(O)(c3ccco3)C(C(=O)c3ccco3)C2)C(=O)c2ccccc2N1` (configuration not stated), the TGI [1] is reported as > 100 µM, the TGI [2] is reported as > 100 µM and the TGI [4] is reported as > 100 µM. The TGI [57] was > 100 µM, the TGI [6] was > 100 µM and the TGI [7] was > 100 µM. For the same compound, the TGI [8] was > 100 µM, the TGI [9] was > 100 µM and the TGI [10] was > 100 µM. For the same compound, the TGI [11] was > 100 µM, the TGI [12] was > 100 µM and the TGI [13] was > 100 µM. The TGI [58] was > 100 µM, the TGI [14] was > 100 µM and the TGI [15] was > 100 µM. For the same compound, the TGI [16] was > 100 µM, the TGI [17] was > 100 µM and the TGI [19] was > 100 µM. The TGI [20] was > 100 µM, the TGI [21] was > 100 µM and the TGI [22] was > 100 µM. For the same compound, the TGI [23] was > 100 µM, the TGI [24] was > 100 µM and the TGI [25] was > 100 µM. The TGI [27] was > 100 µM, the TGI [28] was > 100 µM and the TGI [29] was > 100 µM. For the same compound, the TGI [31] was > 100 µM, the TGI [32] was > 100 µM and the TGI [33] was 57 µM. The TGI [34] was > 100 µM, the TGI [35] was > 100 µM and the TGI [36] was > 100 µM. The TGI [38] was > 100 µM, the TGI [39] was > 100 µM and the TGI [40] was > 100 µM. For the same compound, the TGI [41] was > 100 µM, the TGI [42] was > 100 µM and the TGI [44] was > 100 µM. For the same compound, the TGI [45] was > 100 µM, the TGI [46] was > 100 µM and the TGI [48] was > 100 µM. For the same compound, the TGI [49] was > 100 µM, the TGI [50] was > 100 µM and the TGI [51] was 81.7 µM. The TGI [52] was > 100 µM, the TGI [53] was > 100 µM and the TGI [54] was > 100 µM. The TGI [55] was > 100 µM and the TGI [56] was > 100 µM.

In the case of `NC(=O)CNC(=O)C1CC(O)CN1C(=O)OCc1ccccc1` (configuration not stated) (Cbz-[ξHyp]-Gly-NH2), the TGI [59] is reported as > 100 µM, the TGI [1] is reported as > 100 µM and the TGI [2] is reported as > 100 µM. For the same compound, the TGI [3] was > 100 µM, the TGI [4] was > 100 µM and the TGI [5] was > 100 µM. The TGI [6] was > 100 µM, the TGI [7] was > 100 µM and the TGI [8] was > 100 µM. For the same compound, the TGI [9] was > 100 µM, the TGI [10] was > 100 µM and the TGI [11] was > 100 µM. The TGI [12] was > 100 µM, the TGI [13] was > 100 µM and the TGI [14] was > 100 µM. The TGI [15] was > 100 µM, the TGI [16] was > 100 µM and the TGI [17] was > 100 µM. The TGI [18] was > 100 µM, the TGI [19] was > 100 µM and the TGI [20] was > 100 µM. For the same compound, the TGI [21] was > 100 µM, the TGI [22] was > 100 µM and the TGI [23] was > 100 µM. The TGI [24] was > 100 µM, the TGI [25] was > 100 µM and the TGI [26] was > 100 µM. For the same compound, the TGI [27] was > 100 µM, the TGI [28] was > 100 µM and the TGI [29] was > 100 µM. For the same compound, the TGI [30] was > 100 µM, the TGI [31] was > 100 µM and the TGI [32] was > 100 µM. The TGI [33] was > 100 µM, the TGI [34] was > 100 µM and the TGI [35] was > 100 µM. The TGI [36] was > 100 µM, the TGI [37] was > 100 µM and the TGI [38] was > 100 µM. The TGI [39] was > 100 µM, the TGI [40] was > 100 µM and the TGI [42] was > 100 µM. For the same compound, the TGI [43] was > 100 µM, the TGI [44] was > 100 µM and the TGI [45] was > 100 µM. For the same compound, the TGI [46] was > 100 µM, the TGI [47] was > 100 µM and the TGI [48] was > 100 µM. The TGI [49] was > 100 µM, the TGI [50] was > 100 µM and the TGI [51] was > 100 µM. The TGI [52] was > 100 µM, the TGI [53] was > 100 µM and the TGI [54] was > 100 µM. The TGI [55] was > 100 µM and the TGI [56] was > 100 µM.
